Results as given in patent publication US10010560B2, “Small molecule HSP70 inhibitors” (THE TRUSTEES OF THE UNIVERSITY OF PENNSYLVANIA, priority 2014, dated 2018).

Experiments:
Cyclophilin D (Cyp-D) = assay: Purified mitochondria from H1299 cells, western blot for Cyp-D; type: cell-based
Description: FIGS. 5A-5F illustrates that PET-16 leads to loss of mitochondrial protein Cyclophilin D and impairs bioenergetics in tumor cells. FIGS. 5A-5D are western blots of HSP70, which is present at mitochondria of tumor H1299 cells but not in normal tissue, such as liver. The constitutively expressed 70 kDa family members, HSC70 and GRP75, are present in mitochondria of normal cells. Equal amounts of whole cell (WC)-, cytosolic (cyto)-, and mitochondrial (mito)-extracts prepared from cell lines H1299 (A, C) and MIA PaCa-2 (B) or normal (liver) cells (C, D) were examined by western blot analysis for the presence of the proteins indicated. […] Decreases of AlamarBlue® fluorescence, indicative of mitochondrial damage, are noted in PET-16-treated tumor cells (melanoma tumor cell line WM88 (-), melanoma tumor cell line WM3000 (×), melanoma tumor cell line WM852 (*), human melanoma 451 Lu cells (●), and melanoma tumor cell line WM989 (|), but not normal cells (nontransformed human fibroblasts (IMR90-♦) and primary melanocytes (▪)). Values are normalized to the vehicle-treated cells. Error bars represent standard deviation (s.d.) of four independent experiments. […]

[1] = tested on: mouse melanoma cell line Yumm 1.7; assay: In vivo melanoma model, Yumm 1.7; conditions: single agent, C57BL/6 mice
Description: FIGS. 14A and 14B provide evidence that PET-16 impairs melanoma growth in vivo as a single agent. A well-recognized pulmonary metastatic model was utilized in which immunocompetent, wild-type C57BL/6 mice were injected with the metastatic mouse melanoma cell line Yumm 1.7, as indicated. […] FIG. 14A is a summary of the steps entailed in the model.

HSP70 = HSP70 (Homo sapiens, UniProt P0DMV8); assay: B-PES pull-down assay in cultured tumor cells; type: cell-based; design: endogenous in cells; conditions: H1299 cells pretreated with excess (8×) compound for 1 h, then 20 μM B-PES
Description: FIGS. 3A-3L illustrate that PET-16 binds directly to ADP-bound HSP70 and DnaK. Specifically, FIGS. 3A-3H are isothermal calorimetric titration (ITC) assays of the indicated compounds (NRLLLTG—SEQ ID NO: 7, PES or PET-16) with purified HSP70-ADP, DnaK-ADP or HSP70-ATP proteins. The data are representative of three independent experiments. FIGS. 3I and 3J are ITC assays for the interaction between HSP70 (aa 386-616 of SEQ ID NO: 2) protein and PET-16 (I) or TPP (J). Binding constants (Kd values) are shown (average and s.d. from three independent experiments). PET-16 also binds directly to the purified, full-length, nucleotide-free HSP70 protein, with a reported dissociation constant of 5.2+/−0.1 micromolar, which is the average and standard deviation from two independent experiments (data not shown). FIG. 3K is ITC assay of HSP70 protein preincubated with ADP and PES for 1 h. The mixture was titrated into the sample cell containing PET-16. The data are representative of three independent ITC experiments. FIG. 3L are western blots of human lung carcinoma (H1299) cells that were pretreated with DMSO or excess (8×) PET-16 for 1 h prior to the addition of 20 μM B-PES for 5 h and examined for the expression of HSP70 or BCL-xL. B-PES-containing complexes were captured by Avidin resins and immunoblotted either with anti-HSP70 or anti-BCL-xL antibody. […]

Sequence of HSP70 (P0DMV8 whole entry, the tested form may be a part): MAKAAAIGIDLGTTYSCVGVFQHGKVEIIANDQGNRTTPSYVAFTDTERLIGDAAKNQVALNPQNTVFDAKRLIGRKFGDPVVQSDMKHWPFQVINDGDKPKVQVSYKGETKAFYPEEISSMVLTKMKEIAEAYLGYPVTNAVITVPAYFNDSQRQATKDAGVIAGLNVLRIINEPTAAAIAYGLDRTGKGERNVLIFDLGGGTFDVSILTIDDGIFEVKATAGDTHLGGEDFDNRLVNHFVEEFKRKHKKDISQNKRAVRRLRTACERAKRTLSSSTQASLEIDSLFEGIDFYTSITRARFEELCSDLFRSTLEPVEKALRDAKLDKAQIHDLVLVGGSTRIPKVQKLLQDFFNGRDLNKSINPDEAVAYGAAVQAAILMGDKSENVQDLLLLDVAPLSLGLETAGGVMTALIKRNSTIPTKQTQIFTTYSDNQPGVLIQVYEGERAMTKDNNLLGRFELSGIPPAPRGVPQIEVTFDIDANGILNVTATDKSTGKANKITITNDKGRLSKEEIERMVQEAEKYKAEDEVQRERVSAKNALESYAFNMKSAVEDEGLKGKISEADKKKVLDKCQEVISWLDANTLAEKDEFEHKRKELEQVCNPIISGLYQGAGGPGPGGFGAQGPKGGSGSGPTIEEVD

Structure (SMILES)	abundance of Cyp-D in the soluble-protein fraction (Cyclophilin D (Cyp-D))	melanoma growth in vivo [1]	amount of HSP70 in complex with B-PES (HSP70)
NS(=O)(=O)C#Cc1ccccc1 [PES, 2-Phenylethynesulfonamide, reference compound]	not		
C(#C[P+](c1ccccc1)(c1ccccc1)c1ccccc1)c1ccccc1.[Br-] [PET-16, triphenyl(phenylethynyl)phosphonium bromide]	significantly reduced	inhibits melanoma xenograft growth	clearly reduced
